pIC50: −log10 of the molar value. Where a name gives a salt, the structure may show the parent alone.
biological target: T1, HCV polymerase (Hepatitis C virus genotype 1b, UniProt P26663); assay: biochemical; set-up: species or system HCV BK strain
T1 construct: a region encoding NS5B (J Virol 1991 March, 65(3), 1105-13, 544 amino acids after deletion of 47 amino acids on the C-terminal); 6xHis (C); made in house; host or cells: Escherichia coli
In short: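 Recombinant HCV BK-strain NS5B (C-terminal 47 aa deleted, His6-tagged, E. coli), 0.5 μg/ml, run with 5 μg/ml in vitro-transcribed RNA template (polyU/3′X), ATP/GTP/CTP 50 μM, UTP 2 μM plus [3H]UTP, pH 7.5, 25° C, 90 min. TCA-precipitated RNA counted by scintillation; IC50 from activity with vs without compound.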

T1 sequence (P26663 2420-2963): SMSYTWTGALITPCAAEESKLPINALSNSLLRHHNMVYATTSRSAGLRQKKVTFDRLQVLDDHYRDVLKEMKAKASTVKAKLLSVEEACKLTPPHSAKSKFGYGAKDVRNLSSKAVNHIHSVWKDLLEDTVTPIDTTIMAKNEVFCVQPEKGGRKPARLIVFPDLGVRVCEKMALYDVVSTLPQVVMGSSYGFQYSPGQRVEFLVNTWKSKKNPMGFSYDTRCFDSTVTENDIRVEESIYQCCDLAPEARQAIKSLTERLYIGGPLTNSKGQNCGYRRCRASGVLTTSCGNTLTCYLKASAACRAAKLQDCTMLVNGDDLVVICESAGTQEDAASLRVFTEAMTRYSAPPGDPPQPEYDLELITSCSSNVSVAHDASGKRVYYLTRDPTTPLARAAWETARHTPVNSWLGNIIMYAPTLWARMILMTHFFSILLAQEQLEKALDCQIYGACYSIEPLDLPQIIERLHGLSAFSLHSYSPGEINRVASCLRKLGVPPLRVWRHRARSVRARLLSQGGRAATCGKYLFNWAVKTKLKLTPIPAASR

`COCCOc1cc2[nH]c(C3(NC(=O)c4ccc5c(C6CCCCC6)c6n(c5c4)CCOc4cc(OC)ccc4-6)CCC3)nc2cc1C(=O)O` [Example 2-437, 2-{1-[(12-cyclohexyl-3-methoxy-6,7-dihydro-5-oxa-7a-azadibenzo[a,e]azulene-9-carbonyl)amino]cyclobutyl}-6-(2-methoxyethoxy)-1H-benzimidazole-5-carboxylic acid] was tested. Which pIC50 did it give?
The pIC50 was greater than 7.00.

How did the pIC50 turn out when `COCCOc1cc2[nH]c(C3(NC(=O)c4ccc5c(C6CCCCC6)c6n(c5c4)CCOc4cc(OC)ccc4-6)CCC3)nc2cc1CO` [Example 2-438, N-{1-[5-hydroxymethyl-6-(2-methoxyethoxy)-1H-benzimidazol-2-yl]cyclobutyl}-12-cyclohexyl-3-methoxy-6,7-dihydro-5-oxa-7a-azadibenzo[a,e]azulene-9-carboxamide] was run?
Its pIC50 is greater than 7.00.

How did the pIC50 turn out when `COc1ccc2c(c1)OCCn1c-2c(C2CCCCC2)c2ccc(C(=O)NC3(c4nc5ccc(O)cc5[nH]4)CCC3)cc21` [Example 2-439, N-[1-(6-hydroxy-1H-benzimidazol-2-yl)cyclobutyl]-12-cyclohexyl-3-methoxy-6,7-dihydro-5-oxa-7a-azadibenzo[a,e]azulene-9-carboxamide] was run?
Its pIC50 is greater than 7.00.

`COc1ccc2c(c1)OCCn1c-2c(C2CCCCC2)c2ccc(C(=O)N[C@@H](Cc3c[nH]c4ccc(OCC(=O)O)cc34)c3csc(C)n3)cc21` [Example 2-440, {3-[(S)-2-[(12-cyclohexyl-3-methoxy-6,7-dihydro-5-oxa-7a-azadibenzo[a,e]azulene-9-carbonyl)amino]-2-(2-methylthiazol-4-yl)ethyl]-1H-indol-5-yloxy}acetic acid] was tested. Which pIC50 did it give?
The pIC50 was greater than 7.00.

How did the pIC50 turn out when `COc1ccc2c(c1)OCCn1c-2c(C2CCCCC2)c2ccc(C(=O)N[C@H](C#N)Cc3ccc(O)cc3)cc21` [Example 2-441, N—[(S)-cyano-(4-hydroxybenzyl)-methyl]-12-cyclohexyl-3-methoxy-6,7-dihydro-5-oxa-7a-azadibenzo[a,e]azulene-9-carboxamide] was run?
The pIC50 was greater than 7.00.

`COC(=O)C(N)Cc1ccc(C(C)(C)NC(=O)c2ccc3c(C4CCCCC4)c4n(c3c2)CCOc2cc(OC)ccc2-4)cc1` (centres unmarked) [Example 2-442, methyl 2-amino-3-(4-{1-[(12-cyclohexyl-3-methoxy-6,7-dihydro-5-oxa-7a-azadibenzo[a,e]azulene-9-carbonyl)amino]-1-methylethyl}phenyl)propionate monohydrochloride] was tested. Which pIC50 did it give?
Its pIC50 is greater than 7.00.

With `COc1ccc2c(c1)OCCn1c-2c(C2CCCCC2)c2ccc(C(=O)NC(C)(C)c3ccc(CC(NC(C)=O)C(=O)O)cc3)cc21` (centres unmarked) [Example 2-443, 2-acetylamino-3-(4-{1-[(12-cyclohexyl-3-methoxy-6,7-dihydro-5-oxa-7a-azadibenzo[a,e]azulene-9-carbonyl)amino]-1-methylethyl}phenyl)propionic acid] as the compound, how does the pIC50 read?
Its pIC50 is greater than 7.00.

With `COc1ccc2c(c1)OCCn1c-2c(C2CCCCC2)c2ccc(C(=O)NC(C)(C)c3ccc(CC(N)C(=O)O)cc3)cc21` (centres unmarked) [Example 2-444, 2-amino-3-(4-{1-[(12-cyclohexyl-3-methoxy-6,7-dihydro-5-oxa-7a-azadibenzo[a,e]azulene-9-carbonyl)amino]-1-methylethyl}phenyl)propionic acid] as the compound, how does the pIC50 read?
Its pIC50 is greater than 7.00.

How did the pIC50 turn out when `COc1ccc2c(c1)OCCn1c-2c(C2CCCCC2)c2ccc(C(=O)NC3(c4nc5ccc(C(C)(C)C(=O)O)cc5[nH]4)CCC3)cc21` [Example 2-445, 2-(2-{1-[(12-cyclohexyl-3-methoxy-6,7-dihydro-5-oxa-7a-azadibenzo[a,e]azulene-9-carbonyl)amino]cyclobutyl}-3H-benzimidazol-5-yl)-2-methylpropionic acid] was run?
Its pIC50 is greater than 7.00.

`CCOc1ccc2c(c1)OCCn1c-2c(C2CCCCC2)c2ccc(C(=O)NC3(C(=O)Nc4ccc(/C=C/C(=O)O)cc4)CCC3)cc21` [Example 2-446, (E)-3-[4-({1-[(12-cyclohexyl-3-ethoxy-6,7-dihydro-5-oxa-7a-azadibenzo[a,e]azulene-9-carbonyl)amino]cyclobutanecarbonyl}amino)phenyl]acrylic acid] was tested. Which pIC50 did it give?
Its pIC50 is greater than 7.00.

`COc1ccc2c(c1)OCCn1c-2c(C2CCCCC2)c2ccc(C(=O)NC3(c4nc5cc(C(C)(C)O)c(OC)cc5[nH]4)CCC3)cc21` [Example 2-447, N-{1-[5-(1-hydroxy-1-methylethyl)-6-methoxy-1H-benzimidazol-2-yl]cyclobutyl}-12-cyclohexyl-3-methoxy-6,7-dihydro-5-oxa-7a-azadibenzo[a,e]azulene-9-carboxamide] was tested. Which pIC50 did it give?
Its pIC50 is greater than 7.00.

With `COc1ccc2c(c1)OCCn1c-2c(C2CCCCC2)c2ccc(C(=O)NC3(C(=O)Nc4ccc5nc[nH]c5c4)CCC3)cc21` [Example 2-448, N-[1-(3H-benzimidazol-5-ylcarbamoyl)cyclobutyl]-12-cyclohexyl-3-methoxy-6,7-dihydro-5-oxa-7a-azadibenzo[a,e]azulene-9-carboxamide] as the compound, how does the pIC50 read?
Its pIC50 is greater than 7.00.

How did the pIC50 turn out when `COc1ccc2c(c1)OCCn1c-2c(C2CCCCC2)c2ccc(C(=O)NC3(c4nc5ccc(C(=O)O)cc5[nH]4)CCN(C)CC3)cc21` [Example 2-449, 2-{4-[(12-cyclohexyl-3-methoxy-6,7-dihydro-5-oxa-7a-azadibenzo[a,e]azulene-9-carbonyl)amino]-1-methylpiperidin-4-yl}-3H-benzimidazole-5-carboxylic acid] was run?
The pIC50 was greater than 7.00.

With `COc1ccc2c(c1)OCCn1c-2c(C2CCCCC2)c2ccc(C(=O)N[C@@H](Cc3ccc(O)cc3)C3=NCCN3)cc21` [Example 2-450, N—[(S)-1-(4,5-dihydro-1H-imidazol-2-yl)-2-(4-hydroxyphenyl)ethyl]-12-cyclohexyl-3-methoxy-6,7-dihydro-5-oxa-7a-azadibenzo[a,e]azulene-9-carboxamide] as the compound, how does the pIC50 read?
The pIC50 was greater than 7.00.

`COc1ccc2c(c1)OCCn1c-2c(C2CCCCC2)c2ccc(C(=O)NC3(C(=O)Nc4ccc(/C=C/C(=O)O)cc4OC)CCC3)cc21` [Example 2-451, (E)-3-[4-({1-[(12-cyclohexyl-3-methoxy-6,7-dihydro-5-oxa-7a-azadibenzo[a,e]azulene-9-carbonyl)amino]cyclobutanecarbonyl}amino)-3-methoxyphenyl]acrylic acid] was tested. Which pIC50 did it give?
Its pIC50 is greater than 7.00.

`COc1ccc2c(c1)OCCn1c-2c(C2CCCCC2)c2ccc(C(=O)N[C@@H](Cc3ccc(O)cc3)C(=O)OC(C)(C)C)cc21` [Example 2-452, tert-butyl (S)-2-[(12-cyclohexyl-3-methoxy-6,7-dihydro-5-oxa-7a-azadibenzo[a,e]azulene-9-carbonyl)amino]-3-(4-hydroxyphenyl)propionate] was tested. Which pIC50 did it give?
The pIC50 was greater than 7.00.

`COc1ccc2c(c1)OCCn1c-2c(C2CCCCC2)c2ccc(C(=O)N[C@@H](Cc3ccc(O)cc3)c3nc(=O)on3C)cc21` [Example 2-453, N—[(S)-2-(4-hydroxyphenyl)-1-(2-methyl-5-oxo-2,5-dihydro-1,2,4-oxadiazol-3-yl)ethyl]-12-cyclohexyl-3-methoxy-6,7-dihydro-5-oxa-7a-azadibenzo[a,e]azulene-9-carboxamide] was tested. Which pIC50 did it give?
Its pIC50 is greater than 7.00.

With `COc1ccc2c(c1)OCCn1c-2c(C2CCCCC2)c2ccc(C(=O)N[C@@H](Cc3ccc(O)cc3)c3nnnn3C)cc21` [Example 2-454, N—[(S)-2-(4-hydroxyphenyl)-1-(1-methyl-1H-tetrazol-5-yl)ethyl]-12-cyclohexyl-3-methoxy-6,7-dihydro-5-oxa-7a-azadibenzo[a,e]azulene-9-carboxamide] as the compound, how does the pIC50 read?
The pIC50 was greater than 7.00.

How did the pIC50 turn out when `COc1ccc2c(c1)OCCn1c-2c(C2CCCCC2)c2ccc(C(=O)NC3(c4nc5cc(OCC(=O)O)ccc5[nH]4)CCC3)cc21` [Example 2-455, (2-{1-[(12-cyclohexyl-3-methoxy-6,7-dihydro-5-oxa-7a-azadibenzo[a,e]azulene-9-carbonyl)amino]cyclobutyl}-1H-benzimidazol-5-yloxy)acetic acid] was run?
The pIC50 was greater than 7.00.

`CCN1CCN(CCOc2cccc3c2OCCn2c-3c(C3CCCCC3)c3ccc(C(=O)O)cc32)CC1` [Example 2-456, 12-cyclohexyl-4-[2-(4-ethylpiperazin-1-yl)ethoxy]-6,7-dihydro-5-oxa-7a-azadibenzo[a,e]azulene-9-carboxylic acid dihydrochloride] was tested. Which pIC50 did it give?
Its pIC50 is greater than 7.00.

`CC(C)(C)OC(=O)N1CCC(CCOc2cccc3c2OCCn2c-3c(C3CCCCC3)c3ccc(C(=O)O)cc32)CC1` [Example 2-457, 4-[2-(1-tert-butoxycarbonylpiperidin-4-yl)ethoxy]-12-cyclohexyl-6,7-dihydro-5-oxa-7a-azadibenzo[a,e]azulene-9-carboxylic acid] was tested. Which pIC50 did it give?
The pIC50 was greater than 7.00.

`O=C(O)c1ccc2c(C3CCCCC3)c3n(c2c1)CCOc1c(OCCC2CCNCC2)cccc1-3` [Example 2-458, 12-cyclohexyl-4-[2-(piperidin-4-yl)ethoxy]-6,7-dihydro-5-oxa-7a-azadibenzo[a,e]azulene-9-carboxylic acid monohydrochloride] was tested. Which pIC50 did it give?
The pIC50 was greater than 7.00.

With `CN1CCC(CCOc2cccc3c2OCCn2c-3c(C3CCCCC3)c3ccc(C(=O)O)cc32)CC1` [Example 2-459, 12-cyclohexyl-4-[2-(1-methylpiperidin-4-yl)ethoxy]-6,7-dihydro-5-oxa-7a-azadibenzo[a,e]azulene-9-carboxylic acid monohydrochloride] as the compound, how does the pIC50 read?
Its pIC50 is greater than 7.00.

With `O=C(O)c1ccc2c(C3CCCCC3)c3n(c2c1)CCOc1c(OCCCN2CCCCC2)cccc1-3` [Example 2-460, 12-cyclohexyl-4-[3-(piperidin-1-yl)propoxy]-6,7-dihydro-5-oxa-7a-azadibenzo[a,e]azulene-9-carboxylic acid monohydrochloride] as the compound, how does the pIC50 read?
The pIC50 was greater than 7.00.

How did the pIC50 turn out when `O=C(O)c1ccc2c(C3CCCCC3)c3n(c2c1)CCOc1c(OCCN2CCOCC2)cccc1-3` [Example 2-462, 12-cyclohexyl-4-[2-(morpholin-4-yl)ethoxy]-6,7-dihydro-5-oxa-7a-azadibenzo[a,e]azulene-9-carboxylic acid monohydrochloride] was run?
The pIC50 was greater than 7.00.

With `CN(C)CCOc1cccc2c1OCCn1c-2c(C2CCCCC2)c2ccc(C(=O)O)cc21` [Example 2-463, 12-cyclohexyl-4-(2-dimethylaminoethoxy)-6,7-dihydro-5-oxa-7a-azadibenzo[a,e]azulene-9-carboxylic acid monohydrochloride] as the compound, how does the pIC50 read?
Its pIC50 is greater than 7.00.

— US20070049593A1 (priority 2004, published 2007)
